From PubChem BioAssay (NCI)
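Interpolation was linear, between the two tested concentrations surrounding the appropriate level; five concentrations were tested over 48 hours in 96-well plates. The concentration for 50% growth inhibition is given as GI50. The concentration for full growth arrest is given as TGI.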

Legend:
Assay in all cases: NCI anticancer screen, dose series, 48 h
EKVX NSCLC = test system: EKVX NSCLC
NCI/ADR-RES ovarian = test system: NCI/ADR-RES ovarian
M14 melanoma = test system: M14 melanoma
NCI-H226 lung = test system: NCI-H226 lung
PC-3 prostate = test system: PC-3 prostate
MDA-MB-435 = test system: MDA-MB-435
MDA-MB-231 breast = test system: MDA-MB-231 breast
UACC-62 melanoma = test system: UACC-62 melanoma
SK-MEL-2 melanoma = test system: SK-MEL-2 melanoma
SR leukemia = test system: SR leukemia

Row | SMILES | TGI (EKVX NSCLC) [µM] | TGI (NCI/ADR-RES ovarian) [µM] | TGI (M14 melanoma) [µM] | TGI (NCI-H226 lung) [µM] | TGI (PC-3 prostate) [µM] | TGI (MDA-MB-435) [µM] | TGI (MDA-MB-231 breast) [µM] | TGI (UACC-62 melanoma) [µM] | TGI (SK-MEL-2 melanoma) [µM] | TGI (SR leukemia) [µM] | GI50 (EKVX NSCLC) [µM] | GI50 (NCI/ADR-RES ovarian) [µM] | GI50 (M14 melanoma) [µM] | GI50 (NCI-H226 lung) [µM] | GI50 (PC-3 prostate) [µM] | GI50 (SR leukemia) [µM] | GI50 (UACC-62 melanoma) [µM]
1 | O=C(/C=C/c1ccc(O)c(O)c1)OCCc1ccc2ccccc2c1 | 28.7 | 18.3 | 16.9 | 32.3 | 20.5 | 6.63 | 24.3 | 13.9 | 4.35 |  |  |  |  |  |  |  | 
2 | CN1CSC(=S)N(c2cccc(C(F)(F)F)c2)C1 | 67.7 | 73.4 | 33.8 | 61.8 | 69.1 | 51.9 |  | 31.7 | 43.3 | 52.5 |  |  |  |  |  |  | 
3 | COc1cc2nc(-c3ccc(Cl)cc3)cc(OCCCN3CCOCC3)c2cc1OC | > 100 | > 100 | 2.7 | 4.81 | > 100 |  |  | 6.35 |  | > 100 | 1.73 | 1.15 | 0.545 | 0.997 | 2.63 | 0.414 | 2.26
4 | CCCCI(O)OS(=O)(=O)c1ccc(C)cc1 | > 100 | > 100 | > 100 | > 100 | > 100 | > 100 | > 100 | > 100 | > 100 | 73.3 |  |  |  |  |  |  | 
5 | Cc1ccc2cccc(-c3cccc4ccccc34)c2n1 | 84.9 | > 100 | 55.6 | 74.5 | > 100 | 7.58 | 81 | 61.9 | 37.5 | 35.8 |  |  |  |  |  |  | 
6 | O=[N+]([O-])c1ccc(C[P+]2(c3ccccc3)CCCCC2)cc1 | > 100 |  | > 100 | > 100 |  |  |  | > 100 | > 100 | > 100 |  |  |  |  |  |  | 
7 | CN(CCN1CCCC1)C1CCc2cc(Cl)c(Cl)cc2C1 (centres undefined) | 47.6 | 28 | 31.5 | 34.8 | 52.4 | 37.5 | 34.7 | 19.4 | 35.2 | 74.5 |  |  |  |  |  |  | 
8 | O=c1ccc2ccc(S)cc2o1 | > 100 | > 100 | > 100 | > 100 | > 100 | > 100 | > 100 | > 100 | > 100 | > 100 |  |  |  |  |  |  | 
9 | COc1ccc(C2Oc3ccc(Cl)cc3C=C2[N+](=O)[O-])cc1 (centres undefined) | > 100 | > 100 | > 100 |  | > 100 | > 100 | > 100 | > 100 |  | > 100 |  |  |  |  |  |  | 
10 | COc1cccc(C2c3cc4c(cc3OC(O)C2C)OCO4)c1OC (centres undefined) | 78.7 |  | 50.9 | 24.8 | 32.1 | 33.9 | 42.4 | 44.7 | 25.6 | 11.3 |  |  |  |  |  |  | 
11 | Cc1nc2ccc(Cl)cc2c(-n2ccnc2)c1CCn1ccnc1 |  | 6.03 | > 100 | 53.2 | 72.1 | > 100 | 48.9 | 62.5 | 44.7 | 20.5 |  |  |  |  |  |  | 
12 | COCOc1ccc(C(=O)Oc2cccc3c2OC(C)(C)O3)c(OCOC)c1 | > 100 | > 100 | > 100 | > 100 |  | > 100 | > 100 | 95.7 |  |  |  |  |  |  |  |  | 
13 | O=C1C=CC2(O[C@H](c3ccccc3)[C@@H](c3ccccc3)O2)[C@H](Sc2ccccc2O)C1 | 3.31 | 10 | 0.609 | 5.43 | 2.06 | 0.982 | 2.22 | 2.13 | 4.63 |  |  |  |  |  |  |  | 
14 | COC(=O)CC(=O)OSc1ccccc1 | 89.2 |  | 38.7 | 64 |  |  |  | 29.5 | 97.5 | 42 |  |  |  |  |  |  | 
15 | Cc1ccccc1-c1nc2c(N)nc(N)nc2nc1N | > 100 | > 100 | > 100 |  | > 100 | > 100 | > 100 | > 100 | > 100 | > 100 |  |  |  |  |  |  | 
16 | NS(=O)(=O)c1nnc(NC(=O)N(c2ccccc2)c2ccccc2)s1 | 78.2 | 44.4 | 35.3 | > 100 | > 100 | 68.8 | > 100 | 59.1 | 89.1 |  |  |  |  |  |  |  | 
17 | CN(C)c1nc(Oc2nc(N(C)C)nc(N(C)C)n2)nc(N(C)C)n1 | > 100 |  | > 100 | > 100 |  |  |  | > 100 | > 100 | > 100 |  |  |  |  |  |  | 
18 | NCCN1CCCCCc2ccccc21 | > 10 | > 10 |  | > 10 | > 10 | > 10 |  | > 10 | > 10 | > 10 |  |  |  |  |  |  | 
19 | COc1cc2ccc3c4cc(OC)c(OC)cc4c[n+](C)c3c2cc1O | > 100 |  | > 100 | > 100 |  |  |  | > 100 | > 100 |  |  |  |  |  |  |  | 
20 | CC(=O)c1ccc(Oc2c3ccccc3nc3ccccc23)cc1 | 35.1 | 30.4 | 14.6 | 26.4 | 20.3 | 10.5 | 25.5 | 17 | 21.4 |  |  |  |  |  |  |  | 
21 | O=C(/C=C/c1ccc(Cl)cc1)Oc1ccc(C=C2CCC/C(=C\c3ccc(OC(=O)/C=C/c4ccc(Cl)cc4)cc3)C2=O)cc1 | > 100 | > 100 | > 100 | > 100 | > 100 | > 100 | > 100 | > 100 | > 100 |  |  |  |  |  |  |  | 
22 | O=c1[nH]c(NCc2ccncc2)nc2nc[nH]c12 | > 100 | > 100 | > 100 | > 100 | > 100 | > 100 | > 100 | > 100 | > 100 |  |  |  |  |  |  |  | 
23 | Cc1nc(N)c(N2CCN(C#N)CC2)c(=O)[nH]1 | > 100 | > 100 | > 100 | > 100 | > 100 | > 100 | > 100 |  | > 100 | > 100 |  |  |  |  |  |  | 
24 | CSCC[C@@H](NC(=O)[C@H](CC(C)C)NC(=O)C(Cc1cnc[nH]1)NC(=O)CNC(=O)[C@@H](NC(=O)[C@H](C)NC(=O)[C@H](Cc1c[nH]c2ccccc12)NC(=O)[C@H](CCC(N)=O)NC(=O)[C@@H](N)CC(N)=O)C(C)C)C(N)=O (some centres undefined) | > 100 | > 100 |  | > 100 |  |  |  | > 100 | > 100 |  |  |  |  |  |  |  | 
